“And” between values parts separate entries of the source, which are not always exact repeats. Equal entries are not always repeated. Where two headings read alike, the source gives them in different places.
Experiments:
menin = target: T1, menin (Homo sapiens, UniProt O00255, T541A); assay: Menin/MLL fluorescence polarization (FP) assay; type: binding
T1 sequence (O00255 with tags, fused parts or gaps T541A): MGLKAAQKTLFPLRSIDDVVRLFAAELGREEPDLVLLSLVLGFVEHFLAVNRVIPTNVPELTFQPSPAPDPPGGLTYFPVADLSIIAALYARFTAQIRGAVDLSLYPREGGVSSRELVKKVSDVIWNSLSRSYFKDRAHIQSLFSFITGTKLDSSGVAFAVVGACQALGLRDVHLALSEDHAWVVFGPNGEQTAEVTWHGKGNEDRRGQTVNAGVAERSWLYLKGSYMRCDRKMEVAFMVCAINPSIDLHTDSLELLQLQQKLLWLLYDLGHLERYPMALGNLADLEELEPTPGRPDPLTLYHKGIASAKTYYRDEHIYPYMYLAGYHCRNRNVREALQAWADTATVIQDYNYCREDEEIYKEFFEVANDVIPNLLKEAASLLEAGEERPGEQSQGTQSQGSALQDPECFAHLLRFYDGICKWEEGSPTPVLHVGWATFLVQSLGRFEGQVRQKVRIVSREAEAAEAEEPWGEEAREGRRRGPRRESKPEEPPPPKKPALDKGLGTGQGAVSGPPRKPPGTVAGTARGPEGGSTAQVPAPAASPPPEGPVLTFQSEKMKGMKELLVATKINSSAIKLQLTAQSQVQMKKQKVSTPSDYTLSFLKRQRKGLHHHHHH
Procedure, shortened: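 Compound preincubated 10 min with 100 nM menin, then 5 nM FITC-MBM1 peptide added for 15 min at ambient temperature; pH 7.5 Tris buffer, 0.625% DMSO final. FP read at 485/520 nm. % inhibition versus saturating-competitor and no-competitor controls; 11-point three-fold dilutions from 31 μM.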

MV-4-11 = assay: Proliferation assay (spheroid assay) MV-4-11; type: cell-based, human
Procedure, shortened: (§1)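 Cells grown as spheroids in ultra-low attachment round-bottom wells with compound at varied concentrations (0.3% DMSO) for 8 d at 37 °C; confluence imaged every 4 h. AUC of confluence over time (t=0 baseline) expressed as % of vehicle control; absolute IC50 from nonlinear least-squares fit.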

MOLM14 = assay: Proliferation assay (spheroid assay) MOLM14; type: cell-based, human
Procedure, shortened: as §1

K562 = assay: Proliferation assay (spheroid assay) K562, control cell line; type: cell-based; conditions: Homo sapiens
Procedure: (§2) The anti-proliferative effect of menin/MLL protein/protein interaction inhibitor test compounds was assessed in human leukemia cell lines. The cell lines MV-4-11 and MOLM14 harbor MLL translocations and express the MLL fusion proteins MLL-AF4 and MLL-AF9, respectively, as well as the wildtype protein from the second allele. […] K562 and KG1 were used as a control cell lines containing two MLL wildtype alleles in order to exclude compounds that display general cytotoxic effects.
(§3) MV-4-11 and MOLM14 were cultured in RPMI-1640 (Sigma Aldrich) supplemented with 10% fetal bovine serum (HyClone), 2 mM L-glutamine (Sigma Aldrich) and 50 μg/ml gentamycin (Gibco). K562 were propagated in RPMI-1640 (Sigma Aldrich) supplemented with 20% fetal bovine serum (HyClone), 2 mM L-glutamine (Sigma Aldrich) and 50 μg/ml gentamycin (Gibco). KG1 were cultured in Iscove's MDM (Gibco) supplemented with 20% fetal bovine serum (HyClone), 2 mM L-glutamine (Sigma Aldrich) and 50 μg/ml gentamycin (Gibco).
(§4) In order to assess the anti-proliferative effects, 1,500 MV-4-11, 300 MOLM14, 750 K562 or 1,300 KG1 cells were seeded in 200 μl media per well in 96-well round bottom, ultra-low attachment plates (Costar, catalogue number 7007). Cell seeding numbers were chosen based on growth curves to ensure linear growth throughout the experiment. Test compounds were added at different concentrations and the DMSO content was normalized to 0.3%. Cells were incubated for 8 d at 37° C. and 5% CO2. Spheroid like growth was monitored in real-time by live-cell imaging (IncuCyteZOOM, Essenbio, 4× objective) acquiring one image every four hours for 8 d. Confluence (%) as a measure of spheroid size was determined using an integrated analysis tool.
(§5) In order to determine the cumulative effect of the test compounds over time, the area under the curve (AUC) in a plot of confluence against time was calculated. Confluence at the beginning of the experiment (t=0) was used as baseline for the AUC calculation.
(§6) Absolute IC50 values were calculated according to the following procedure: % Control=(AUC sample/AUC control)*100 AUC control=mean AUC of control values (cells without compound/DMSO as vehicle control)
(§7) A non-linear curve fit was applied using the least squares (ordinary) fit method to the plot of % control versus compound concentration. Based on this, the absolute IC50 value (half maximal inhibitory concentration of the test compound causing an anti-proliferative effect of 50% relative to the vehicle control) was calculated.

KG1 = assay: Proliferation assay (spheroid assay) KG1, control cell line; type: cell-based; conditions: Homo sapiens
Procedure: as §2, §3, §4, §5, §6, §7

[1] = 100 nM menin, 5 nM FITC-MBM1 peptide, individual measurements (not averaged), read-out: (1) Menin FP assay (IC50 (μM))
[2] = MOLM14 (MLL-AF9), 8 d, absolute IC50 from AUC of confluence, individual measurements (not averaged), read-out: (2) Spheroid assay MOLM14 (IC50 (μM))
[3] = KG-1, 192 h, KG1 (MLL wildtype control), 8 d, absolute IC50 from AUC of confluence, individual measurements (not averaged), read-out: (2) Spheroid assay KG1 (IC50 (μM))
[4] = Homo sapiens, MV4-11, MV-4-11, averaged values, read-out: Spheroid assay MV-4-11 (IC50 (μM))
[5] = Homo sapiens, MOLM-14, MOLM14, averaged values, read-out: Spheroid assay MOLM14 (IC50 (μM))
[6] = K562 control cell line, averaged values, read-out: Spheroid assay K562 (IC50 (μM))
[7] = KG-1, KG1 control cell line, averaged values, read-out: Spheroid assay KG1 (IC50 (μM))

Structure (SMILES)	IC50 (menin; [1])	IC50 (MV-4-11; Homo sapiens, MV4-11, 192 h, MV-4-11 (MLL-AF4), 8 d, absolute IC50 from AUC of confluence, individual measurements (not averaged), read-out: (2) Spheroid assay MV-4-11 (IC50 (μM)))	IC50 (MOLM14; [2])	IC50 (K562; 192 h, K562 (MLL wildtype control), 8 d, absolute IC50 from AUC of confluence, individual measurements (not averaged), read-out: (2) Spheroid assay K562 (IC50 (μM)))	IC50 (MV-4-11; MV-4-11 (MLL-AF4), 8 d, absolute IC50 from AUC of confluence, individual measurements (not averaged), read-out: (2) Spheroid assay MV-4-11 (IC50 (μM)))	IC50 (MOLM14; Homo sapiens, MOLM-14, 192 h, MOLM14 (MLL-AF9), 8 d, absolute IC50 from AUC of confluence, individual measurements (not averaged), read-out: (2) Spheroid assay MOLM14 (IC50 (μM)))	IC50 (MV-4-11; [4])	IC50 (MOLM14; [5])	IC50 (K562; [6])	IC50 (menin; averaged values over all measurements, read-out: Menin FP assay (IC50 (μM)))	IC50 (KG1; [3])	IC50 (KG1; [7])
FC(F)(F)Cc1cc2c(N3CC[C@]4(CCN(Cc5ccccc5)C4)C3)ncnc2s1 (single isomer, unassigned) [Compound 20b]	0.038 µM	0.51 µM	> 15 µM and 2.5 µM	> 15 µM							> 15 µM	
N#Cc1cc2cc(CN3CC4(CCN(c5ncnc6sc(CC(F)(F)F)cc56)C4)C3)ccc2[nH]1 [Compound 17]	0.054 µM		2.3 µM		4.9 µM and 0.76 µM and 0.84 µM	3.4 µM					11 µM	
C[C@@H]1CN[C@H](C(=O)N2CC3(C2)CN(c2ncnc4sc(CC(F)(F)F)cc24)C3)C1 [Compound 82]							0.38 µM	1.8 µM	> 15 µM			> 15 µM
CC(C)[C@H](C1CN(C)C1)N1CC2(CCN(c3ncnc4sc(CC(F)(F)F)cc34)C2)C1 [Compound 196]							0.3 µM	1.1 µM	> 15 µM			> 15 µM
CC[C@H](c1cnn(C)c1)N1CC2(CCN(c3ncnc4sc(CC(F)(F)F)cc34)C2)C1 [Compound 220]							0.65 µM	4.7 µM	> 15 µM			> 15 µM
CC(C)C[C@H](c1cnn(C)c1)N1CC2(CCN(c3ncnc4sc(CC(F)(F)F)cc34)C2)C1 [Compound 247]							0.45 µM	2.1 µM	> 15 µM			> 15 µM
CC(C)[C@H](c1cnn(C)c1)N1CC2(CCN(c3ncnc4sc(CC(F)(F)F)cc34)C2)C1 [Compound 274]							0.36 µM	2.3 µM	> 15 µM			> 15 µM

Now from value to compound, other results behind:

IC50 (menin; [1])	IC50 (MV-4-11; Homo sapiens, MV4-11, 192 h, MV-4-11 (MLL-AF4), 8 d, absolute IC50 from AUC of confluence, individual measurements (not averaged), read-out: (2) Spheroid assay MV-4-11 (IC50 (μM)))	IC50 (MOLM14; [2])	IC50 (K562; 192 h, K562 (MLL wildtype control), 8 d, absolute IC50 from AUC of confluence, individual measurements (not averaged), read-out: (2) Spheroid assay K562 (IC50 (μM)))	IC50 (MV-4-11; MV-4-11 (MLL-AF4), 8 d, absolute IC50 from AUC of confluence, individual measurements (not averaged), read-out: (2) Spheroid assay MV-4-11 (IC50 (μM)))	IC50 (MOLM14; Homo sapiens, MOLM-14, 192 h, MOLM14 (MLL-AF9), 8 d, absolute IC50 from AUC of confluence, individual measurements (not averaged), read-out: (2) Spheroid assay MOLM14 (IC50 (μM)))	IC50 (MV-4-11; [4])	IC50 (MOLM14; [5])	IC50 (K562; [6])	IC50 (menin; averaged values over all measurements, read-out: Menin FP assay (IC50 (μM)))	Structure (SMILES)	IC50 (KG1; [3])	IC50 (KG1; [7])
						0.19 µM	0.86 µM	11.9 µM		CC(C)[C@H](C1CCNCC1)N1CC2(CCN(c3ncnc4sc(CC(F)(F)F)cc34)C2)C1 [Compound 168]		15 µM
						0.65 µM	1.7 µM	> 15 µM		CC(C)[C@H](C1CCOCC1)N1CC2(CCN(c3ncnc4sc(CC(F)(F)F)cc34)C2)C1 [Compound 193]		> 15 µM
						0.08 µM	0.86 µM	10.3 µM	0.021 µM	CC(C)[C@H](C1CNC1)N1CC2(CCN(c3ncnc4sc(CC(F)(F)F)cc34)C2)C1 [Compound 273]		12 µM

Source: patent US12084462B2, “Spiro bicyclic inhibitors of menin-MLL interaction” (Janssen Pharmaceutica NV, priority 2016, dated 2024)
